# Measurements: patent US8642594B2, “Substituted thieno[2,3-d]pyrimidines as HSP90 inhibitors” (Vernalis (R&D) Limited, priority 2003, dated 2014)
# Molecular target: T1, Human full-length Hsp90 (Homo sapiens, UniProt P08238)
# T1 construct: E. coli expressed human full-length HSP90 protein, purified >95%; made in house; host or cells: E. coli
# Assay: Fluorescence polarization assay (competitive binding to HSP90, probe RBT0045864-FAM)
# Conditions: not given
# Description: Fluorescence Polarization Assay
# Fluorescence polarization {also known as fluorescence anisotropy} measures the rotation of a fluorescing species in solution, where the larger molecule the more polarized the fluorescence emission. When the fluorophore is excited with polarized light, the emitted light is also polarized. The molecular size is proportional to the polarization of the fluorescence emission.
# The fluoroscein-labelled probe—RBT0045864-FAM—
# Test compound is added to the assay plate, left to equilibrate and the anisotropy measured again. Any change in anisotropy is due to competitive binding of compound to HSP90, thereby releasing probe.
# Stored at room temperature. • 3) BSA (bovine serum albumen) 10 mg/ml (New England Biolabs #B9001S) • 4) 20 mM probe in 100% DMSO stock concentration. Stored in the dark at RT. Working concentration is 200 nM diluted in AR water and stored at 4° C. […] Protocol • 1) Add 100 μl 1× buffer to wells 11A and 12A (=FP BLNK) • 2) Prepare assay mix—all reagents are kept on ice with a lid on the bucket as the probe is light-sensitive.
# This gives 2.5 mM {50×} stock cpd—assuming cpds 20 mM. • 4) Repeat for wells A2 to A10. Control in columns 11 and 12. • 5) Transfer 5 μl from row A to row B—not column 12. Mix well. • 6) Transfer 5 μl from row B to row C. […] Add 2 μl of 100 mM standard cpd to wells B12-H12 {is positive control} • 13) The Z′ factor is calculated from zero controls and positive wells.
# T1 sequence (P08238 whole entry): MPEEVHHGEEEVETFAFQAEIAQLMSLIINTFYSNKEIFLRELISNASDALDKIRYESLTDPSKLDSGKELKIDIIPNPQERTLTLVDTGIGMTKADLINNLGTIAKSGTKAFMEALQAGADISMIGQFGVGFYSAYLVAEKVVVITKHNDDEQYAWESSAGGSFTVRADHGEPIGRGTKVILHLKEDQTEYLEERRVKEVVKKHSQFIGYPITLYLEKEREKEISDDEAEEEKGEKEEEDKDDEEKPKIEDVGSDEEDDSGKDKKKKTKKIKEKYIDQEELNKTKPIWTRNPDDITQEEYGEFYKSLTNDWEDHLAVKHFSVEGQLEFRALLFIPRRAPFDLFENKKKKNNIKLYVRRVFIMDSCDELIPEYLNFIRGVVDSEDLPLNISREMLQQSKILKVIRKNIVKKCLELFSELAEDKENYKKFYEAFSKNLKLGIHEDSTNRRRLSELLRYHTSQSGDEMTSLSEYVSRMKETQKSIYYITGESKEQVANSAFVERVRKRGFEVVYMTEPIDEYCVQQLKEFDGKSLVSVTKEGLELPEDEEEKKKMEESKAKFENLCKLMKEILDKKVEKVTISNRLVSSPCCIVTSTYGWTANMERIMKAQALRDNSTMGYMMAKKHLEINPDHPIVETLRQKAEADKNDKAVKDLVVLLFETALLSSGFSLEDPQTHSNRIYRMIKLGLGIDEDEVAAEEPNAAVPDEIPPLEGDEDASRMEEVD
row,Structure (SMILES),IC50
1,CCNC(=O)c1cc2c(-c3cc(OCCNCCOC)c(Cl)cc3Cl)nc(N)nc2s1 [Example 247],< 10 µM
2,"CCNC(=O)c1cc2c(-c3cc(OCCN(CC)CC)c(Cl)cc3Cl)nc(N)nc2s1 [Example 235, 2-Amino-4-[2,4-dichloro-5-(2-diethylamino-ethoxy)-phenyl]-thieno[2,3-d]pyrimidine-6-carboxylic acid ethyl amide]",< 10 µM
3,CCNC(=O)c1cc2c(-c3cc(OCC#N)c(Cl)cc3Cl)nc(N)nc2s1 [Example 270],< 10 µM
4,CCNC(=O)c1cc2c(-c3cc(OCCN4CCC(F)(F)CC4)c(Cl)cc3Cl)nc(N)nc2s1 [Example 250],< 10 µM

# Same assay, conditions: fluorescence polarization assay, activity range; read-out: Hsp90 FP IC50
row,IC50,Structure (SMILES)
1,< 10 µM,CCNC(=O)c1cc2c(-c3cc(C)c(C)cc3C)nc(N)nc2s1 [Example 150]
2,< 10 µM,CCOC(=O)c1cc2c(-c3ccc(C#N)cc3)nc(N)nc2s1 [Example 16]
3,< 10 µM,Cc1ccc(-c2nc(N)nc3sc(C(=O)NCCCN(C)C)cc23)c(C)c1 [Example 83]
4,< 10 µM,Cc1ccc(-c2nc(N)nc3sc(C(=O)Nc4ccccc4)cc23)c(C)c1 [Example 91]
5,< 10 µM,Nc1nc(-c2ccc(Cl)cc2Cl)c2cc(C(=O)NCc3cccs3)sc2n1 [Example 124]
6,> 10 µM,COC(=O)c1cc2c(N(C)Cc3ccccc3)nc(N)nc2s1 [Example 23]
7,< 10 µM,CCOC(=O)c1cc2c(C(=O)c3cccc(F)c3)nc(N)nc2s1 [Example 303]
8,< 10 µM,CCNC(=O)c1cc2c(-c3c(C)cccc3C)nc(N)nc2s1 [Example 73]
9,< 10 µM,Nc1nc(-c2ccccc2)c2cc(C(=O)NCCc3cnc[nH]3)sc2n1 [Example 57]
10,< 10 µM,Nc1nc(-c2ccc(Cl)cc2Cl)c2cc(C(=O)Nc3ccc(Cl)cc3)sc2n1 [Example 111]
11,> 10 µM,CCOC(=O)c1cc2c(-c3ccc(OCC(C)C)cc3C)nc(N)nc2s1 [Example 189]
12,< 10 µM,CN(C)CCCNC(=O)c1cc2c(-c3ccc(Cl)cc3Cl)nc(N)nc2s1 [Example 102]
13,> 10 µM,Nc1nc(-c2ccccc2)c2cc(C(=O)NCCCN3CCOCC3)sc2n1 [Example 66]
14,> 10 µM,CCOC(=O)c1cc2c(NCCCN3CCCC3=O)nc(N)nc2s1 [Example 31]
15,< 10 µM,CCCNC(=O)c1cc2c(-c3ccccc3)nc(N)nc2s1 [Example 47]
16,< 10 µM,CCN1CCCC1CNC(=O)c1cc2c(-c3ccc(Cl)cc3Cl)nc(N)nc2s1 (stereo not drawn) [Example 129]
17,< 10 µM,CCOC(=O)c1cc2c(-c3ccc(C)cc3)nc(N)nc2s1 [Example 11]
18,< 10 µM,CCOC(=O)c1cc2c(/C=C/c3cccc(C(F)(F)F)c3)nc(N)nc2s1 [Example 284]
19,< 10 µM,CCOC(=O)c1cc2c(C(C)c3ccccc3)nc(N)nc2s1 (stereo not drawn) [Example 285]
20,< 10 µM,COc1ccc(CNC(=O)c2cc3c(-c4ccc(Cl)cc4Cl)nc(N)nc3s2)cc1 [Example 118]
21,< 10 µM,CC(C)(NC(=O)c1cc2c(-c3ccc(Cl)cc3Cl)nc(N)nc2s1)c1ccccc1 [Example 140]

row,IC50,Structure (SMILES)
1,< 10 µM,CN1CCCC1CCNC(=O)c1cc2c(-c3ccc(Cl)cc3Cl)nc(N)nc2s1 (stereo not drawn) [Example 157]
2,< 10 µM,CC(C)C[C@H](NC(=O)c1cc2c(-c3ccc(Cl)cc3Cl)nc(N)nc2s1)C(N)=O [Example 161]
3,< 10 µM,CCNC(=O)c1cc2c(-c3cc(CNCC(N)=O)ccc3C)nc(N)nc2s1 [Example 219]
4,< 10 µM,CCOC(=O)c1cc2c(/C=C/c3ccc(F)cc3)nc(N)nc2s1 [Example 282]
5,< 10 µM,Nc1nc(-c2ccc(Cl)cc2Cl)c2cc(C(=O)Nc3nccs3)sc2n1 [Example 142]
6,< 10 µM,CCNC(=O)c1cc2c(-c3cc(CNCC(C)C)ccc3C)nc(N)nc2s1 [Example 218]
7,> 10 µM,COC(=O)c1cc2c(Nc3ccccc3)nc(N)nc2s1 [Example 21]
8,< 10 µM,CCOC(=O)c1cc2c(-c3ncccc3C)nc(N)nc2s1 [Example 115]
9,> 10 µM,CCOC(=O)c1cc2c(-c3c(Cl)cccc3OC)nc(N)nc2s1 [Example 147]
10,< 10 µM,Nc1nc(-c2ccc(Cl)cc2Cl)c2cc(C(=O)NC3CC3)sc2n1 [Example 155]
11,< 10 µM,CCNC(=O)c1cc2c(C(C)c3ccccc3)nc(N)nc2s1 (stereo not drawn) [Example 287]
12,> 10 µM,CCOC(=O)c1cc2c(-c3cccc(CN4CCCC4)c3)nc(N)nc2s1 [Example 7]
13,< 10 µM,CCOC(=O)c1cc2c(C(=O)c3ccc(OC)c(F)c3)nc(N)nc2s1 [Example 314]
14,< 10 µM,CCOC(=O)c1cc2c(-c3cncc4ccccc34)nc(N)nc2s1 [Example 293]
15,< 10 µM,C=CCc1ccc(-c2nc(N)nc3sc(C(=O)NCC)cc23)c(C)c1 [Example 176]
16,< 10 µM,C=C(c1ccccc1)c1nc(N)nc2sc(C(=O)OCC)cc12 [Example 276]
17,< 10 µM,CCOC(=O)c1cc2c(-c3c(C)cc(C)cc3C)nc(N)nc2s1 [Example 77]
18,> 10 µM,CNC(=O)c1cc2c(NCc3ccccc3)nc(N)nc2s1 [Example 65]
19,< 10 µM,Nc1nc(-c2ccc(Cl)cc2Cl)c2cc(C(=O)NC3CN4CCC3CC4)sc2n1 (stereo not drawn) [Example 158]
20,< 10 µM,CCOC(=O)c1cc2c(C(=O)c3ccc(OC)cc3)nc(N)nc2s1 [Example 297]

# The next lines start with the molecule.
row,Structure (SMILES),IC50
1,Nc1nc(-c2ccc(Cl)cc2Cl)c2cc(C(=O)NCCCO)sc2n1 [Example 101],< 10 µM
2,CCOC(=O)c1cc2c(-c3cc(Cl)ccc3C)nc(N)nc2s1 [Example 178],< 10 µM
3,Nc1nc(-c2ccc(Cl)cc2Cl)c2cc(C(=O)NCC(O)CO)sc2n1 (stereo not drawn) [Example 128],< 10 µM
4,Nc1nc(-c2ccc(Cl)cc2Cl)c2cc(C(=O)Nc3cccc(Cl)c3)sc2n1 [Example 109],< 10 µM
5,CCNC(=O)c1cc2c(-c3cc(OCCNC4CCCCC4)c(Cl)cc3Cl)nc(N)nc2s1 [Example 245],< 10 µM
6,CCOC(=O)c1cc2c(-c3ccccn3)nc(N)nc2s1 [Example 104],> 10 µM
7,CCOC(=O)c1cc2c(-c3ccc(CC)cc3Cl)nc(N)nc2s1 [Example 175],< 10 µM
8,CCNC(=O)c1cc2c(-c3cc(OCCN4CCC(F)CC4)c(Cl)cc3Cl)nc(N)nc2s1 [Example 249],< 10 µM
9,CCOC(=O)c1cc2c(-c3c[nH]c4ccccc34)nc(N)nc2s1 [Example 294],> 10 µM
10,C=CCOc1ccc(-c2nc(N)nc3sc(C(=O)OCC)cc23)c(C)c1 [Example 187],< 10 µM
11,NC(=O)[C@H](Cc1ccc(O)cc1)NC(=O)c1cc2c(-c3ccc(Cl)cc3Cl)nc(N)nc2s1 [Example 163],< 10 µM
12,CCOC(=O)c1cc2c(/C=C/c3ccc(C(F)(F)F)cc3)nc(N)nc2s1 [Example 288],< 10 µM
13,CCNCc1ccc(C)c(-c2nc(N)nc3sc(C(=O)NCC)cc23)c1 [Example 206],< 10 µM
14,Nc1nc(-c2ccccc2)c2cc(C(=O)NCCc3ccccc3)sc2n1 [Example 49],> 10 µM
15,CCOC(=O)c1cc2c(-c3ccc(OCC)cc3)nc(N)nc2s1 [Example 8],< 10 µM
16,CCOC(=O)c1cc2c(-c3ccc(C)cn3)nc(N)nc2s1 [Example 114],< 10 µM
17,CC(C)NC(=O)c1cc2c(-c3cc(O)c(Cl)cc3Cl)nc(N)nc2s1 [Example 248],< 10 µM

row,Structure (SMILES),IC50
1,CNC(=O)c1cc2c(N(C)Cc3ccccc3)nc(N)nc2s1 [Example 67],> 10 µM
2,Cc1ccc(-c2nc(N)nc3sc(C(=O)NCCO)cc23)c(C)c1 [Example 82],< 10 µM
3,CCOC(=O)c1cc2c(C(=O)c3ccc(Cl)c(F)c3)nc(N)nc2s1 [Example 313],< 10 µM
4,Cc1ccc(-c2nc(N)nc3sc(C(=O)NC(C)C)cc23)c(C)c1 [Example 81],< 10 µM
5,"CCOC(=O)c1cc2c(-c3cc(C=O)ccc3C)nc(N)nc2s1 [Example 196, 2-Amino-4-(5-formyl-2-methyl-phenyl)-thieno[2,3-d]pyrimidine-6-carboxylic acid ethyl ester]",< 10 µM
6,CCOC(=O)c1cc2c(-c3ccccc3C)nc(N)nc2s1 [Example 15],< 10 µM
7,CCOC(=O)c1cc2c(C(=O)c3ccc(Cl)c(Cl)c3)nc(N)nc2s1 [Example 309],< 10 µM
8,CCNC(=O)c1cc2c(-c3cccc(O)c3)nc(N)nc2s1 [Example 244],< 10 µM
9,NC(=O)[C@H](Cc1cnc[nH]1)NC(=O)c1cc2c(-c3ccc(Cl)cc3Cl)nc(N)nc2s1 [Example 164],< 10 µM
10,Nc1nc(-c2ccc(Cl)cc2Cl)c2cc(C(=O)Nc3ccccc3)sc2n1 [Example 107],< 10 µM
11,CCOC(=O)c1cc2c(-c3ccc(Cl)cc3Cl)nc(N)nc2s1 [Example 89],< 10 µM
12,CCOC(=O)c1cc2c(C(=O)c3ccccc3Cl)nc(N)nc2s1 [Example 302],< 10 µM
13,Nc1nc(-c2ccc(Cl)cc2Cl)c2cc(C(=O)NCCCN3CCCC3)sc2n1 [Example 145],< 10 µM
14,CCOC(=O)c1cc2c(-c3ccc(OCC#N)cc3C)nc(N)nc2s1 [Example 188],< 10 µM
15,CCC/C=C/c1nc(N)nc2sc(C(=O)OCC)cc12 [Example 292],> 10 µM
16,CCOC(=O)c1cc2c(C(=O)c3ccccc3F)nc(N)nc2s1 [Example 301],< 10 µM
